≈ marks a conversion by molar mass, not a printed value.
Tests used:
HeLa CD4 LTR β-gal cells [1] = assay: HIV attachment inhibition assay (β-galactosidase chemiluminescence)
gp120/CD4 interaction [2] = molecular target: T1, gp120/CD4 interaction (Human immunodeficiency virus type 1 group M subtype B, UniProt P03375)
gp120/CD4 interaction [3] = molecular target: T1, gp120/CD4 interaction; assay: cell-based
HeLa CD4 LTR β-gal cells [4] = assay: Compound toxicity in HeLa CD4 LTR β-gal cells (XTT)

Structure (SMILES): COc1cc(-c2ccc(/N=N/c3ccc4c(S(=O)(=O)O)cc(S(=O)(=O)O)c(N)c4c3O)c(OC)c2)ccc1/N=N/c1ccc2c(S(=O)(=O)O)cc(S(=O)(=O)O)c(N)c2c1O [Chicago Sky Blue]
- IC50 (HeLa CD4 LTR β-gal cells [1]; Human immunodeficiency virus 1, HeLa): 0.53 µg/mL (≈ 0.586 µM)
- TI (=IC50/TC50) (HeLa CD4 LTR β-gal cells [1]; general virus attachment): >18
- TI (=IC50/TC50) (gp120/CD4 interaction [2]): >5
- IC50 (gp120/CD4 interaction [3]): 2.28 µM
- TC50 (HeLa CD4 LTR β-gal cells [4]; Table 10, XTT sister plate): >10 µg/mL
- TC50 (HeLa CD4 LTR β-gal cells [4]; Table 11): >10 µg/mL

Reference: US6534049B2, “Synthetic soil-extract materials and medicaments for human immunodeficiency viruses based thereon” (priority 1997, dated 2003)
